Data published in patent US20250049795A1, “USE OF 5-(2-((5-(4-(DIMETHYLAMINO)PIPERIDIN-1-YL)PYRIDIN-2-YL)AMINO)-5-FLUOROPYRIMIDIN-4-YL)-N,4-DIMETHYLTHIAZOL-2-AMINE IN COMBINATION THERAPIES FOR CANCER” (Aucentra Therapeutics Pty Ltd, priority 2022, published 2025).
Entries after “also recorded” stand apart in the source; their conditions may differ.

Assays:
[1] = test system: other members of CDK family; assay: Kinase profiling of CDK family; assay type: biochemical
Description: Eurofins Pharma Discovery or Reaction Biology Corporation Kinase Profiler services were used to measure inhibition of CDKs and other kinases by radiometric assay (RIA). Inhibition of CDK4/cyclin D1, CDK6/cyclin D3 and CDK9/cyclin T1 were also determined using ADP Glo Kinase assays (Promega Corporation, Madison WI, United States of America). Briefly, the kinase reaction for CDK4/cyclin D1 and CDK6/cyclin D3 was performed with kinase reaction buffer ([…] Tris base pH 7.5, 20 mM MgCl2, 0.4 mM DTT), 0.1 mg/ml BSA and RB-CTF substrate (retinoblastoma protein1 C-terminal fraction). For CDK9/cyclin T1, the kinase reaction was performed with standard assay buffer and Kinase Dilution Buffer and RBER-IRStide substrate. Serial dilutions of 1:3 were prepared for test compounds for 10 concentrations (from 10 μM to 0.5 nM). The kinase reactions were started by addition of ATP, incubated for 40 min at […] and then stopped by adding 10 μL of ADP Glo reagent. […] Luminescence was measured using an EnVision Multilabel plate reader (PerkinElmer, Buckinghamshire, United Kingdom). […] Half-maximal inhibition (IC50) values were calculated using a 4-parameter logistic non-linear regression model with Graphpad prism (Version 6.0). Apparent inhibition constants (Ki) values were calculated from Km (ATP) and IC50 values for the respective kinases.

[2] = test system: CT26.WT colorectal cancer cells; assay: In vivo anti-tumour activity in mice with a colorectal cancer syngeneic allograft; design: species or system mouse
Description: Murine triple-negative breast cancer EMT6 tumour cells (ATCC® CRL-2755™) and colorectal cancer CT26.WT cells (ATCC® CRL-2638™) were cultured and expanded in RPMI-1640 medium (Roswell Park Memorial Institute Medium-1640) with L-glutamine and sodium bicarbonate (Sigma-Aldrich, Macquarie Park, NSW, Australia) supplemented with 10% heat-inactivated foetal bovine serum (FBS). Cells were cultured in an incubator at 5% CO2 37° C.
(§1) CT26.WT colorectal cancer cells were harvested and re-suspended in a 1:1 mixture of Matrigel™ (#354234; Corning Life Sciences, Corning, NY, United States of America) and serum-free RPMI-1640 medium, and thereafter injected sub-cutaneously (sc) (7×10^5 cells in a volume of 100 μL) into the right flank of each female BALB/c mouse. After the tumour volume reached ˜100 mm^3, the mice were randomised into two groups (n=8/group) and given vehicle (1% CMC in water), compound 1 (150 mg/kg) once daily by oral administration (QD PO), Anti-PD1 (RMP1-14-derived mouse monoclonal antibody, Assay Matrix, Australia; […]) by intraperitoneal (ip) administration, or compound 1 plus anti-PD-1 antibody (FIG. 1).

[3] = test system: T cell populations (CD3+, CD8+); assay: Flow cytometry study of immune profiles in CT26.WT syngeneic mouse model; assay type: in vivo; conditions: day 14 of dosing, 3 mice of each group
Excerpt: FIG. 2 provides further graphical results showing the in vivo anti-tumour efficacy of compound 1 in the CT26.WT syngeneic mouse model through activation of immunity. In the experiment, on day 14 of dosing, 3 mice of each group were sacrificed for flow cytometry study of immune profiles.
as §1, with “1). Compound 1 achieved significant tumour growth inhibition with a T/C=24% when used alone, and T/C=14% when used in the combination with the anti-PD-1 antibody, as measured on day 14 of dosing (FIG. 1).” for “1).”

[4] = target: T1, CDK4/cyclin D1 (Homo sapiens, UniProt P11802); assay: CDK inhibition, kinase assay (radiometric / ADP Glo); assay type: biochemical
T1 construct: purchased Eurofins Pharma Discovery or Reaction Biology Corporation (radiometric service)
Description: Serial dilutions of 1:3 were prepared for test compounds for 10 concentrations (from 10 μM to 0.5 nM). […] Positive and negative controls were performed in the presence and absence of CDK kinases, respectively. Half-maximal inhibition (IC50) values were calculated using a 4-parameter logistic non-linear regression model with Graphpad prism (Version 6.0). Apparent inhibition constants (Ki) values were calculated from Km (ATP) and IC50 values for the respective kinases.

T1 sequence (P11802 whole entry): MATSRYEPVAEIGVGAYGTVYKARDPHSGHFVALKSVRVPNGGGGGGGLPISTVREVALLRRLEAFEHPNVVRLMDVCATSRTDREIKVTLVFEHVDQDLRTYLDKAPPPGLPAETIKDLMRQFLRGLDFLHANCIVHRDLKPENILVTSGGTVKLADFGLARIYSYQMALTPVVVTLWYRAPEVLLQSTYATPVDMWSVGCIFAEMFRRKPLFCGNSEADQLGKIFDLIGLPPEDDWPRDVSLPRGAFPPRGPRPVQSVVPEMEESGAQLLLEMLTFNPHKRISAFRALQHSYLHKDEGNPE
T1 sequence (P24385 whole entry partner): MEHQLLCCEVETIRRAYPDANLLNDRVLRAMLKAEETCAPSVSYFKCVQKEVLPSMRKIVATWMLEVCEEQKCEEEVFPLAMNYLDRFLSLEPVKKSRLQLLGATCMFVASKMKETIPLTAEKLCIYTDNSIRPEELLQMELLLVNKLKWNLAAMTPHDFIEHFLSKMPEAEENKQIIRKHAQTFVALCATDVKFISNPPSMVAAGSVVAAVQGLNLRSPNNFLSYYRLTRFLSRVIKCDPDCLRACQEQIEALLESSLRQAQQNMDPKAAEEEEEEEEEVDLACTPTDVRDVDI

CNc1nc(C)c(-c2nc(Nc3ccc(N4CCC(N(C)C)CC4)cn3)ncc2F)s1 [Compound 1, 5-(2-((5-(4-(dimethylamino)piperidin-1-yl)pyridin-2-yl)amino)-5-fluoropyrimidin-4-yl)-N,4-dimethylthiazol-2-amine]
activity against other members of CDK family [1]: no activity | extended survival of animals ([2]; BALB/c mice, CT26.WT allograft, compound 1 150 mg/kg QD PO, anti-PD1 ip, p<0.001): 60% | survival of the mice (in words) ([2]; BALB/c mice, CT26.WT allograft, p<0.001): significantly prolong the survival | tumor volume in treatment vs control ratio (T/C) ([2]; female BALB/c mice, sc CT26.WT allograft, day 14 of dosing, compound 1 150 mg/kg QD PO, Anti-PD1 150 g/mouse/wk ip): 24% | T cell populations (% CD3+ and % CD8+) in spleen, blood and tumour samples [3]: increased T cell populations; also recorded: increased level | selectivity for CDK4 over CDK6 [4]: 140 fold
